Test results from US20130065792A1, “INDUCIBLE EXPRESSION OF SGLT5, METHODS AND KITS USING THE SAME” (BOEHRINGER INGELHEIM INTERNATIONAL GMBH, priority 2011, published 2013).
Where two headings read alike, the source gives them in different places. Values belong to the molecule of their own block, whether it stands above or below them.

Key:
SGLT5 [1] = target: T1, SGLT5 (Homo sapiens, UniProt A0PJK1); test: [14C]-monosaccharide uptake inhibition assay, [14C]-mannose as substrate, stable cell lines overexpressing human SGLT-5; format: cell-based; settings: for IC50 / pIC50 ± SEM for inhibition of hSGLT-5: [14C]-mannose as substrate
T1 construct: expressed in transfected cells; host or cells: T-Rex 293 cells (Invitrogen), stably transfected with pT-Rex-Dest30-hSGLT5; expression induced with tetracycline; deposited clone DSM ACC3096
T1 sequence (A0PJK1 1-596): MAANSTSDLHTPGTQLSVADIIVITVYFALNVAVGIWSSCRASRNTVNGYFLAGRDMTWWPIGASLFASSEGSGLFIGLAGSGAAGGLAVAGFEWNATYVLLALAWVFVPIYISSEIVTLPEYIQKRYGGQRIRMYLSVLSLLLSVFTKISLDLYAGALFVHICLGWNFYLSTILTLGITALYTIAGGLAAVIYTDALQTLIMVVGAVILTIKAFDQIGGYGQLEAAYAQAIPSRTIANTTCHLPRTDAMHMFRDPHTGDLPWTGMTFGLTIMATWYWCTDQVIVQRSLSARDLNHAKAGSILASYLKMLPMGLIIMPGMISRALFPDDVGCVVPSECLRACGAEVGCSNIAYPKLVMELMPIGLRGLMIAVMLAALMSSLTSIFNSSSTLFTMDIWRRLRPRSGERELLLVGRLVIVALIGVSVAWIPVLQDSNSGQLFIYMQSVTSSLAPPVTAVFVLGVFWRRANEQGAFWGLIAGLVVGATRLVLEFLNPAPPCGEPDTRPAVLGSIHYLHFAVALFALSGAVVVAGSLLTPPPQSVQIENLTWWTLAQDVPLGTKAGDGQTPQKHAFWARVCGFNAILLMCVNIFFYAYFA
Method: [^14C]-monosaccharide uptake inhibition experiments: Stable cell lines overexpressing human SGLT-5 were used for the sodium-dependent monosaccharide transport inhibition assay. […] The uptake reaction was started by the addition of 0.6 μCi [^14C]-labelled monosaccharide i.e. [^14C]-labeled alpha-methyl glucopyranoside (AMG), glucose, fructose, mannose or myo-inositol, in 0.1 mM AMG (or the respective non-radioactive monosaccharide). After incubation for 60 minutes at 37° C., the cells were washed three times with 300 μl PBS (Cambrex, Verviers, Belgium) and then lysed in 0.1 N NaOH with intermittent shaking for 5 minutes. The lysate was mixed with 200 μl MicroScint 40 and shaken for 15 minutes and counted for radioactivity in the TopCount NXT (Canberra Packard, Schwadorf, Austria). The cells were pre-incubated in pre-treatment buffer (uptake buffer containing choline chloride instead of sodium chloride) for 25 minutes prior to addition of uptake buffer. A dose-response curve was fitted to an empirical four-parameter model using XL Fit (IDBS, Guildford, UK) to determine the inhibitor concentration at half-maximal response (IC50). Human SGLT-5 was identified to be a mannose transporter and the inhibition of hSGLT-5 was assessed by a newly established [^14C]-mannose uptake assay.

SGLT5 [2] = target: T1, SGLT5; test: Km-determination for mannose, fructose and AMG uptake by T-Rex 293-hSGLT5 cells; format: cell-based; settings: for Km: specific (sodium dependent) uptake of [14C]-sugar, 4 h, T-Rex 293-hSGLT5 cells, three assays in parallel, read-out: Affinity for SGLT5 (Km)
Method: (§1) [^14C]-monosaccharide uptake inhibition experiments: Stable cell lines overexpressing human SGLT-5 were used for the sodium-dependent monosaccharide transport inhibition assay. Cells were pre-incubated in 200 μl uptake buffer (10 mM HEPES, 137 mM NaCl, 5.4 mM KCl, 2.8 mM CaCl2, 1.2 mM MgCl2, 50 μg/ml Gentamycin, 0.1% BSA) for 25 minutes at 37° C. 10 μM Cytochalasin B and test compound was added at different concentrations 15 minutes before the initiation of the uptake experiment.
(§2) The uptake reaction was started by the addition of 0.6 μCi [^14C]-labelled monosaccharide i.e. [^14C]-labeled alpha-methyl glucopyranoside (AMG), glucose, fructose, mannose or myo-inositol, in 0.1 mM AMG (or the respective non-radioactive monosaccharide).
(§3) After incubation for 60 minutes at 37° C., the cells were washed three times with 300 μl PBS (Cambrex, Verviers, Belgium) and then lysed in 0.1 N NaOH with intermittent shaking for 5 minutes. The lysate was mixed with 200 μl MicroScint 40 and shaken for 15 minutes and counted for radioactivity in the TopCount NXT (Canberra Packard, Schwadorf, Austria). The cells were pre-incubated in pre-treatment buffer (uptake buffer containing choline chloride instead of sodium chloride) for 25 minutes prior to addition of uptake buffer.
Km-determination for mannose, fructose and Alpha-Methylglucose (AMG) uptake by SGLT5: The uptake of Mannose, Fructose and AMG was assayed as described under “[^14C]-monosaccharide uptake inhibition experiments” in the absence (nonspecific uptake) or presence of sodium (Total uptake) in the buffer at different concentrations of the respective monosaccharide for 4 h. From the difference of Total uptake and Nonspecific uptake the Specific uptake was calculated and the Km was determined using the Program Graph Pad Prism (LaJolla, Calif., USA).
(§4) The measured affinity curves measured in three assays run in parallel are shown in FIG. 4A (for mannose), 4B (for fructose) and 4C (for AMG).

SGLT5 [3] = target: T1, SGLT5; test: Time dependent specific uptake of [14C]-monosaccharides by T-Rex 293-hSGLT5 cells (FIG. 3); format: cell-based; settings: 1 mM monosaccharide, 5-60 min, tetracycline induced T-Rex 293-hSGLT5 cells
Method: [^14C]-saccharide uptake experiments: 30000 cells per well were seeded in white poly-D-lysine-coated 96-well plates and incubated over night. The expression of hSGLT5 was induced 24 h before the start of uptake experiments by the addition of 1 μg/ml tetracycline to the cells. For the assay, cells were washed twice with 250 μl pre-treatment buffer [140 mM cholinchloride in basal buffer (10 mM HEPES; 5.4 mM KCl; 2.8 mM CaCl2*2 H2O; 1.2 mM MgSO4*7 H2O; 0.1% BSA, pH 7.4) and incubated in 200 μl pre-treatment buffer for 25 min at 37° C. Pre-treatment buffer was removed and 200 μl uptake buffer was added to the cells (140 mM NaCl in basal buffer containing 1 mM cold monosaccharide [either glucose, fructose, mannose, galactose or alphamethyl glucopyranoside (AMG), respectively]+0,6 μCi [^14C]-labelled monosaccharide [either glucose, fructose, mannose, galactose or alpha-methyl glucopyranoside (AMG), respectively] (Hartmann Analytics, Mannheim, Germany) and 10 μM Cytochalasin B. After incubation for 5, 10, 30 and 60 minutes at 37° C., the cells were washed three times with 300 μl PBS (Cambrex, Verviers, Belgium) and then lysed in 0.1 N NaOH with intermittent shaking for 5 min. The lysate was mixed with 200 μl MikroScint 40 Scintillator, shaken for 15 min and counted for radioactivity in the TopCount NXT (Canberra Packard, Schwadorf, Austria). Specific sugar uptake was determined by subtracting non-specific uptake of each sugar (in the presence of choline chloride) from total uptake of the same sugar (in the presence of sodium chloride).
Furthermore, a protocol was established to measure the specific uptake of monosaccharides e.g. mannose, fructose, glucose, AMG and galactose by hSGLT5, It could be shown that the transporter takes up mannose and fructose with high affinity and hardly transports glucose, AMG and galactose (FIG. 3). […] Specific uptake was calculated by subtracting the respective monosaccharide uptake in the presence of choline chloride from the total uptake of the same monosaccharide in the presence of sodium chloride.

[4] = substrate: O=C(CO)[C@@H](O)[C@H](O)[C@H](O)CO; test: Km-determination for mannose, fructose and AMG uptake by T-Rex 293-hSGLT5 cells; format: cell-based, human; settings: other: specific (sodium dependent) uptake of [14C]-sugar, 4 h, three assays in parallel, 37.0 °C
Method: as §1, §2
as §3, with “The cells were pre-incubated in pre-treatment buffer (uptake buffer containing choline chloride instead of sodium chloride) for 25 minutes prior to addition of uptake buffer.” left out
as §4

[5] = 60 minutes at 37° C., at least three independent experiments, read-out: Mean IC50 for inhibition of hSGLT-5

Molecule: Cc1ccc([C@@H]2O[C@H](CO)[C@@H](O)[C@H](O)[C@H]2O)cc1Cc1ccc(-c2ccc(F)cc2)s1 [Canagliflozin]
IC50 (SGLT5 [1]; [5]): 1.7 µM
pIC50 ± SEM for inhibition of hSGLT-5 (SGLT5 [1]; given with negative sign): 5.77 ± 0.12

Molecule: COC1OC(CO)C(O)C(O)C1O (stereo not drawn) [AMG, alpha-methyl glucopyranoside]
Km fold higher than the Km for fructose (SGLT5 [2]; ratio of Km values): at least 5 fold
Km fold higher than the Km for mannose (SGLT5 [2]; ratio of Km values): at least 33 fold
Km (SGLT5 [2]): 10.1 mM
specific uptake / affinity for hSGLT5 (in words) (SGLT5 [3]): very low affinity

Molecule: OC[C@H]1O[C@@H](c2ccc(F)c(Cc3cc4ccccc4s3)c2)[C@H](O)[C@@H](O)[C@@H]1O [ASP-1941]
IC50 (SGLT5 [1]; [5]): 0.74 µM

Molecule: O=C(CO)[C@@H](O)[C@H](O)[C@H](O)CO [Fructose]
Km fold higher than the Km for mannose (SGLT5 [2]; ratio of Km values): 6.67 fold
Km (SGLT5 [2]): ≤ 2 mM
specific uptake / affinity for hSGLT5 (in words) (SGLT5 [3]): high affinity

B1: SGLT5 (Homo sapiens) (protein)
chain: MAANSTSDLHTPGTQLSVADIIVITVYFALNVAVGIWSSCRASRNTVNGYFLAGRDMTWWPIGASLFASSEGSGLFIGLAGSGAAGGLAVAGFEWNATYVLLALAWVFVPIYISSEIVTLPEYIQKRYGGQRIRMYLSVLSLLLSVFTKISLDLYAGALFVHICLGWNFYLSTILTLGITALYTIAGGLAAVIYTDALQTLIMVVGAVILTIKAFDQIGGYGQLEAAYAQAIPSRTIANTTCHLPRTDAMHMFRDPHTGDLPWTGMTFGLTIMATWYWCTDQVIVQRSLSARDLNHAKAGSILASYLKMLPMGLIIMPGMISRALFPDDVGCVVPSECLRACGAEVGCSNIAYPKLVMELMPIGLRGLMIAVMLAALMSSLTSIFNSSSTLFTMDIWRRLRPRSGERELLLVGRLVIVALIGVSVAWIPVLQDSNSGQLFIYMQSVTSSLAPPVTAVFVLGVFWRRANEQGAFWGLIAGLVVGATRLVLEFLNPAPPCGEPDTRPAVLGSIHYLHFAVALFALSGAVVVAGSLLTPPPQSVQIENLTWWTLAQDVPLGTKAGDGQTPQKHAFWARVCGFNAILLMCVNIFFYAYFA
notes: expressed in transfected cells; host or cells: T-Rex 293 cells (Invitrogen), stably transfected with pT-Rex-Dest30-hSGLT5; expression induced with tetracycline; deposited clone DSM ACC3096
Km [4]: 2.0 mM

Now from value to molecule:

IC50 (SGLT5 [1]; [5]): 1.5 µM
Molecule: O=C(CCc1ccc(O)cc1)c1c(O)cc(O)cc1O[C@@H]1O[C@H](CO)[C@@H](O)[C@H](O)[C@H]1O [Phlorizin]

IC50 (SGLT5 [1]; [5]): 0.82 µM
Molecule: CCOc1ccc(Cc2cc([C@@H]3O[C@H](CO)[C@@H](O)[C@H](O)[C@H]3O)ccc2Cl)cc1 [Dapagliflozin]

selectivity over SGLT-2 (SGLT5 [1]; SGLT-5 versus SGLT-2): < 15 fold
IC50 (SGLT5 [1]; [5]): 0.19 µM
Molecule: Cc1c(Cc2ccc(OC(C)C)cc2)c(O[C@@H]2O[C@H](CO)[C@@H](O)[C@H](O)[C@H]2O)nn1C(C)C [Remogliflozin]

IC50 (SGLT5 [1]; [5]): 1.1 µM
pIC50 ± SEM for inhibition of hSGLT-5 (SGLT5 [1]; given with negative sign): 5.95
Molecule: COc1ccc(Cc2ccccc2O[C@@H]2O[C@H](CO)[C@@H](O)[C@H](O)[C@H]2O)cc1 [Sergliflozin]

IC50 (SGLT5 [1]; [5]): 1.1 µM
IC50 (SGLT5 [1]; given with negative sign, read-out: pIC50 ± SEM for inhibition of hSGLT-5 (converted)): 1.05 µM
Molecule: OC[C@H]1O[C@@H](c2ccc(Cl)c(Cc3ccc(O[C@H]4CCOC4)cc3)c2)[C@H](O)[C@@H](O)[C@@H]1O [Compound A, D-glucitol, 1,5-anhydro-1-C-[4-chloro-3-[[4-[[(3S)-tetrahydro-3-furanyl]oxy]phenyl]methyl]phenyl]-, (1S)-]

IC50 (SGLT5 [1]; [5]): 1.1 µM
pIC50 ± SEM for inhibition of hSGLT-5 (SGLT5 [1]; given with negative sign): 5.97 ± 0.19
Molecule: Cc1cc(O)c(C(=O)CCc2ccc3occc3c2)c(O[C@@H]2O[C@H](CO)[C@@H](O)[C@H](O)[C@H]2O)c1 [Compound T1095A]
